Laboratory results published in ChEMBL document CHEMBL1134917, “Substituted 4-anilino-7-phenyl-3-quinolinecarbonitriles as Src kinase inhibitors” (Bioorg Med Chem Lett, 2002).
pIC50: −log10 of the molar value.

Tests used:
[1] = Inhibitory concentration required for the Src dependent cell proliferation using Src-transformed fibroblasts
[2] = target: Proto-oncogene tyrosine-protein kinase Src (Homo sapiens, UniProt P12931); assay: Inhibitory concentration against Src protein tyrosine kinase
[3] = target: Epidermal growth factor receptor (Homo sapiens, UniProt P00533); assay: Inhibition of Epidermal growth factor receptor
Sequence of Epidermal growth factor receptor (P00533 whole entry): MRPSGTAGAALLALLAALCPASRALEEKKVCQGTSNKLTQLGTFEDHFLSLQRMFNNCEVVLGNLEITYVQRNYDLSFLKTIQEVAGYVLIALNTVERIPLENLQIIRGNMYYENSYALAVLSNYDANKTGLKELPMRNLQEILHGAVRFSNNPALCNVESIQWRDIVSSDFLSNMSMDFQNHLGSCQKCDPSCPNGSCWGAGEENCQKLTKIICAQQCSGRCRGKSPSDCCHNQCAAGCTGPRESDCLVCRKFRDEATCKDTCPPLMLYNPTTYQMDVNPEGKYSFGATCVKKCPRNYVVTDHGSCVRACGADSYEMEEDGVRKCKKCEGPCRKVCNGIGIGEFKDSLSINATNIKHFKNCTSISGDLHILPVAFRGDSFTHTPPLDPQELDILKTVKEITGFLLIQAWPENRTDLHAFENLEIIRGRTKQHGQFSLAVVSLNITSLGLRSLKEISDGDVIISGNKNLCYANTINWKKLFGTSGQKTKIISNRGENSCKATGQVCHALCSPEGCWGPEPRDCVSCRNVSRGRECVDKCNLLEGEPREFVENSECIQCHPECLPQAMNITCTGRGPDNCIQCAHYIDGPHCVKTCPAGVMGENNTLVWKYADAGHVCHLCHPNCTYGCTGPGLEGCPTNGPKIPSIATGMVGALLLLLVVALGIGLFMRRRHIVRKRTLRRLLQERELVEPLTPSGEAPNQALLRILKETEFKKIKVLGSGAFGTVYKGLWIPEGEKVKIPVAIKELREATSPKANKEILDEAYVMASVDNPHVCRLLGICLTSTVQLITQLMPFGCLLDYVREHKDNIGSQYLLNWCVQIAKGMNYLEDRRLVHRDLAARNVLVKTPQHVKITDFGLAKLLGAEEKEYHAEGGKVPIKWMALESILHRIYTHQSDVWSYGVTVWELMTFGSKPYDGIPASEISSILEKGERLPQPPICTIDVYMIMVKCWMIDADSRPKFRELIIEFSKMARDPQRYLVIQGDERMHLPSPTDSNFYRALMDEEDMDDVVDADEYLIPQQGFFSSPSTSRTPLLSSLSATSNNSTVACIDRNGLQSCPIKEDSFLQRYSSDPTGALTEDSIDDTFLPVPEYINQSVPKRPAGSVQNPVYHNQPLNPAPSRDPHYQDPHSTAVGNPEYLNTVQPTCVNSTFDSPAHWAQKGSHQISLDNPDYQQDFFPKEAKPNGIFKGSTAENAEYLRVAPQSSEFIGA

[4] = target: Dual specificity mitogen-activated protein kinase kinase 1 (Homo sapiens, UniProt Q02750); assay: Inhibition of Dual specificity mitogen-activated protein kinase kinase, MEK
Sequence of Dual specificity mitogen-activated protein kinase kinase 1 (Q02750 whole entry): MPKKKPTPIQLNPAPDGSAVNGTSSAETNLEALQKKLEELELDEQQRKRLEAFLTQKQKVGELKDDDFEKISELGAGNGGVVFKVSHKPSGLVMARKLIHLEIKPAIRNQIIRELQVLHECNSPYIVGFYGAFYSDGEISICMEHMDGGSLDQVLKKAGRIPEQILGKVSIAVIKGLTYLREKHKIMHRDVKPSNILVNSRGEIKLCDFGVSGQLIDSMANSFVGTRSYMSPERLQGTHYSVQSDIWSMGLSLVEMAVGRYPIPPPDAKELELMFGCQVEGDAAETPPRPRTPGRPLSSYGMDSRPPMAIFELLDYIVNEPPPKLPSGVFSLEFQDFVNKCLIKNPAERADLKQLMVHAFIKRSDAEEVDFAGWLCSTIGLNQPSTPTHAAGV

[5] = target: Cyclin-dependent kinase 4 (Homo sapiens) (UniProt P11802); assay: Inhibition of Cyclin-dependent kinase 4 (CDK4) at ug/mL; settings: concentration not given here
Sequence of Cyclin-dependent kinase 4 (Homo sapiens) (P11802 whole entry): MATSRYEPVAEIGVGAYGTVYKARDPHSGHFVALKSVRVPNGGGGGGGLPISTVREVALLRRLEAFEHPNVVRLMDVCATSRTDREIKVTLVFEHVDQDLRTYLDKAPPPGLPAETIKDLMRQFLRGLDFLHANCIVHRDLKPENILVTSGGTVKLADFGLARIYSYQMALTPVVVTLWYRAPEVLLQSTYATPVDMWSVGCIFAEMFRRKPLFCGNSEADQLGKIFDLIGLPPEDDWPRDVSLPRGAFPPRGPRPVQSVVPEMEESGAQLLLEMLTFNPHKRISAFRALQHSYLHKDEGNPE

Sequence of Proto-oncogene tyrosine-protein kinase Src (P12931 2-536 limits assumed): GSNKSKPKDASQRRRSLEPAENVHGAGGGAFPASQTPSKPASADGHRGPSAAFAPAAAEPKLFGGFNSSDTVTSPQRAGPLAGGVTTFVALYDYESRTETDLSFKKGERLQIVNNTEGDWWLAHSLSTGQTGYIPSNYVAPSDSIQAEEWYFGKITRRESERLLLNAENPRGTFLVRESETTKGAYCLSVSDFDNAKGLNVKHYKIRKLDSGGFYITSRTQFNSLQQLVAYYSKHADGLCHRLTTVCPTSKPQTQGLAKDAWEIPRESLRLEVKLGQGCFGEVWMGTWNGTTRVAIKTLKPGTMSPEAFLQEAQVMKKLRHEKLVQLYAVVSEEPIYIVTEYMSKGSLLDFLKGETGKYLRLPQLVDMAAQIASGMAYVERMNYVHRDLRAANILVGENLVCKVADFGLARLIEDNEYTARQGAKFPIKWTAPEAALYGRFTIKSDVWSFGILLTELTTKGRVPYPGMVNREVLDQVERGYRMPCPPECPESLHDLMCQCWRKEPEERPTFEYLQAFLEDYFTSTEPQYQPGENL

SMILES	pIC50 [1]	pIC50 [2]	pIC50 [3]	pIC50 [4]	inhibition [5] [%]
CCN1CCN(Cc2ccc(-c3ccc4c(Nc5cc(OC)c(Cl)cc5Cl)c(C#N)cnc4c3)cc2)CC1	6.02	8.52			
COc1cc(Nc2c(C#N)cnc3cc(-c4ccccc4CN4CCOCC4)ccc23)c(Cl)cc1Cl	< 5.00	5.40			
COc1cc(Nc2c(C#N)cnc3cc(OCCCN4CCN(C)CC4)c(OC)cc23)c(Cl)cc1Cl [BOSUTINIB]	7.00				
COc1cc(Nc2c(C#N)cnc3cc(-c4cccc(CCN5CCOCC5)c4)ccc23)c(Cl)cc1Cl	5.49	7.54			
COc1cc(Nc2c(C#N)cnc3cc(-c4ccc(CN5CCN(CCO)CC5)cc4)ccc23)c(Cl)cc1Cl	7.15	8.33			
CCN1CCN(CCc2ccc(-c3ccc4c(Nc5cc(OC)c(Cl)cc5Cl)c(C#N)cnc4c3)cc2)CC1	5.72	8.43			
COc1cc(Nc2c(C#N)cnc3cc(-c4cccc(CN5CCOCC5)c4)ccc23)c(Cl)cc1Cl	5.41	7.55			
CCN1CCN(Cc2ccc(-c3cc4ncc(C#N)c(Nc5cc(OC)c(Cl)cc5Cl)c4cc3OC)cc2)CC1	5.70	8.15			
COc1cc(Nc2c(C#N)cnc3cc(-c4ccc(CCN5CCOCC5)cc4)ccc23)c(Cl)cc1Cl	6.00	7.85			
COc1cc(Nc2c(C#N)cnc3cc(-c4ccc(CCN5CCOCC5)cc4)c(OC)cc23)c(Cl)cc1Cl	5.89	7.96			
COc1cc(Nc2c(C#N)cnc3cc(-c4cccc(CN5CCN(C)CC5)c4)ccc23)c(Cl)cc1Cl	5.55	7.85			
COc1cc(Nc2c(C#N)cnc3cc(-c4ccc(CN5CCOCC5)cc4)ccc23)c(Cl)cc1Cl	6.28	8.48	5.52	6.55	10
COc1cc(Nc2c(C#N)cnc3cc(-c4cccc(CCN5CCOCC5)c4)c(OC)cc23)c(Cl)cc1Cl	4.92	7.13			
COc1cc(Nc2c(C#N)cnc3cc(-c4ccc(CN5CCOCC5)cc4)c(OC)cc23)c(Cl)cc1Cl	5.82	7.82			
COc1cc(Nc2c(C#N)cnc3cc(-c4cccc(CN5CCOCC5)c4)c(OC)cc23)c(Cl)cc1Cl	5.09	6.82			
